The test system of experiment [1] is CD8+ OT-I T cells in C57B1/6 Ly5.1 mice. The conditions noted are these: mouse, in vivo, sc.
In experiment [2] the test system is mouse DCs. The format is cell-based.
For experiment [3], the system named is mouse DCs. The format is cell-based. This is another data set of the same source.

The source of these data is US9061066B2 (priority 2010, dated 2015).

As to Poly I/C, the “OT-I T cell proliferation in the draining lymph node” value in experiment [1] was “OT-I T cell proliferation”. As to methyl-cyclodextrin [MβCD], the “surface expression of CD80, CD86, CD40 and MHC class II, comparison of cyclic glucan structures” value in experiment [2] is listed as “failed to significantly activate DC”. The “TNF-alpha and IL-12 secretion, comparison of cyclic glucan structures” value in experiment [3] is “none of the cytokines were secreted”.
